In the first assay the test system is tau protein. Kind of assay: Tau protein in vitro degradation assay (Western blot, Tau-13 antibody). The class given is cell-based, human. The settings on record: SK-N-SH cells; 72 hours of incubation; tested at 300 nM, 100 nM, 33 nM and 11 nM; Western blot, Tau-13 antibody. The method, boiled down: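 Tau degradation read by Tau-13 Western blot (detects all human tau forms) of SDS-PAGE-resolved lysates from SK-N-SH cells. Cells were plated at least 18 h before 72 h exposure to PROTACs at either 1000/300/100 nM or 300/100/33/11 nM.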
A general note: In western blotting, separated proteins are transferred to a membrane and probed.
For `O=C1CCC(N2C(=O)c3ccc(OCCCCCN4CCN(CCCc5ccc(-c6ccc7c8cnccc8n(CC(F)(F)F)c7c6)cn5)CC4)cc3C2=O)C(=O)N1` (stereo not drawn) [Compound 61, 2-(2,6-dioxopiperidin-3-yl)-5-((5-(4-(3-(5-(5-(2,2,2-trifluoroethyl)-5H-pyrido[4,3-b]indol-7-yl)pyridin-2-yl)propyl)piperazin-1-yl)pentyl)oxy)isoindoline-1,3-dione], the “Degradation activity* (highest amount of degradation observed at any dosage; tau protein remaining)” value is “C (>80% tau protein remaining after 72 hours of incubation with the test compound)”.

Consider `O=C1CCC(N2C(=O)c3ccc(OCCOCC#Cc4ccc(O[C@H]5C[C@H](Oc6ccc(-c7ccc8c(c7)[nH]c7ccncc78)cn6)C5)cn4)cc3C2=O)C(=O)N1` (stereo partly drawn) [Compound 173, 5-(2-((3-(5-((1r,3r)-3-((5-(5H-pyrido[4,3-b]indol-7-yl)pyridin-2-yl)oxy)cyclobutoxy)pyridin-2-yl)prop-2-yn-1-yl)oxy)ethoxy)-2-(2,6-dioxopiperidin-3-yl)isoindoline-1,3-dione], for which the “Degradation activity (tau protein remaining; highest amount of degradation observed at any dosage)” value is recorded as “A (≤50% tau protein remaining after 72 hours of incubation with the test compound)”. For `O=C1CCC(N2C(=O)c3ccc(OCCCc4ccc(O[C@H]5C[C@H](Oc6ccc(-c7ccc8c(c7)[nH]c7ccncc78)cn6)C5)cn4)cc3C2=O)C(=O)N1` (stereo partly drawn) [Compound 77, 5-(3-(5-((1r,3r)-3-((5-(5H-pyrido[4,3-b]indol-7-yl)pyridin-2-yl)oxy)cyclobutoxy)pyridin-2-yl)propoxy)-2-(2,6-dioxopiperidin-3-yl)isoindoline-1,3-dione], the “Degradation activity* (highest amount of degradation observed at any dosage; tau protein remaining)” value is “C (>80% tau protein remaining after 72 hours of incubation with the test compound)”. As to `Cn1c2ccncc2c2ccc(-c3ccc(C#CCOCCOCCOCCOCCOc4ccc5c(c4)C(=O)N(C4CCC(=O)NC4=O)C5=O)nc3)cc21` (stereo not drawn) [Compound 71, 2-(2,6-dioxopiperidin-3-yl)-5-((15-(5-(5-methyl-5H-pyrido[4,3-b]indol-7-yl)pyridin-2-yl)-3,6,9,12-tetraoxapentadec-14-yn-1-yl)oxy)isoindoline-1,3-dione], the “Degradation activity* (highest amount of degradation observed at any dosage; tau protein remaining)” value is given as “A (≤50% tau protein remaining after 72 hours of incubation with the test compound)”. `Cn1c2ccncc2c2ccc(-c3ccc(O[C@H]4C[C@H](Oc5ccc(C#CCCCCOc6ccc7c(c6)C(=O)N(C6CCC(=O)NC6=O)C7=O)nc5)C4)nc3)cc21` (stereo partly drawn) [Compound 97, 2-(2,6-dioxopiperidin-3-yl)-5-((6-(5-((1r,3r)-3-((5-(5-methyl-5H-pyrido[4,3-b]indol-7-yl)pyridin-2-yl)oxy)cyclobutoxy)pyridin-2-yl)hex-5-yn-1-yl)oxy)isoindoline-1,3-dione]: the “Degradation activity* (highest amount of degradation observed at any dosage; tau protein remaining)” value is “B (≤80% and >50% tau protein remaining after 72 hours of incubation with the test compound)”. On the same count and under the same terms, to `Cn1c2ccncc2c2ccc(-c3ccc(C(F)(F)COCCCCCOCCCCCCOc4ccc5c(c4)C(=O)N(C4CCC(=O)NC4=O)C5=O)nc3)cc21` (stereo not drawn) [Compound 93, 5-((6-((5-(2,2-difluoro-2-(5-(5-methyl-5H-pyrido[4,3-b]indol-7-yl)pyridin-2-yl)ethoxy)pentyl)oxy)hexyl)oxy)-2-(2,6-dioxopiperidin-3-yl)isoindoline-1,3-dione] belongs “C (>80% tau protein remaining after 72 hours of incubation with the test compound)”; to `Cn1c2ccncc2c2ccc(-c3cnc(OC4CCN(CCCOCCCOC5CN(c6ccc7c(c6)C(=O)N(C6CCC(=O)NC6=O)C7=O)C5)CC4)c(C(F)(F)F)c3)cc21` (stereo not drawn) [Compound 130, 2-(2,6-dioxopiperidin-3-yl)-5-(3-(3-(3-(4-((5-(5-methyl-5H-pyrido[4,3-b]indol-7-yl)-3-(trifluoromethyl)pyridin-2-yl)oxy)piperidin-1-yl)propoxy)propoxy)azetidin-1-yl)isoindoline-1,3-dione], “B (≤80% and >50% tau protein remaining after 72 hours of incubation with the test compound)”; to `Cn1c2ccncc2c2ccc(-c3ccc(O[C@H]4C[C@H](Oc5cnc(CCCCCCOc6ccc7c(c6)C(=O)N(C6CCC(=O)NC6=O)C7=O)nc5)C4)nc3)cc21` (stereo partly drawn) [Compound 151, 2-(2,6-dioxopiperidin-3-yl)-5-((6-(5-((1r,3r)-3-((5-(5-methyl-5H-pyrido[4,3-b]indol-7-yl)pyridin-2-yl)oxy)cyclobutoxy)pyrimidin-2-yl)hexyl)oxy)isoindoline-1,3-dione], “B (≤80% and >50% tau protein remaining after 72 hours of incubation with the test compound)”. As for `Cn1c2ccncc2c2ccc(-c3ccc(O[C@H]4C[C@H](OCCOCCOCCC5CN(c6ccc7c(c6)C(=O)N(C6CCC(=O)NC6=O)C7=O)C5)C4)nc3)cc21` (stereo partly drawn) [Compound 190, 2-(2,6-dioxopiperidin-3-yl)-5-(3-(2-(2-(2-((1r,3r)-3-((5-(5-methyl-5H-pyrido[4,3-b]indol-7-yl)pyridin-2-yl)oxy)cyclobutoxy)ethoxy)ethoxy)ethyl)azetidin-1-yl)isoindoline-1,3-dione], the “Degradation activity (tau protein remaining; highest amount of degradation observed at any dosage)” value is reported as “C (>80% tau protein remaining after 72 hours of incubation with the test compound)”.

Still in this assay, the particulars now being: SK-N-SH cells; 72 hours of incubation; tested at 1000 nM, 300 nM and 100 nM.
For the molecule `Cc1ncoc1-c1ccc(CNC(=O)[C@@H]2C[C@@H](O)CN2C(=O)[C@@H](NC(=O)COCCOCCOCCOCC(=O)N2CCN(c3ccn4c(n3)nc3ccccc34)CC2)C(C)(C)C)cc1` [Compound 14, (2S,4R)-1-((S)-17-(4-(benzo[4,5]imidazo[1,2-a]pyrimidin-2-yl)piperazin-1-yl)-2-(tert-butyl)-4,17-dioxo-6,9,12,15-tetraoxa-3-azaheptadecanoyl)-4-hydroxy-N-(4-(4-methyloxazol-5-yl)benzyl)pyrrolidine-2-carboxamide], the “Activity* (highest amount of degradation observed at any dosage, as tau protein remaining)” value is listed as “C (>80% tau protein remaining after 72 hours of incubation with the test compound)”. The same measure, in the same setting: to `Cc1ncsc1-c1ccc(CNC(=O)[C@@H]2C[C@@H](O)CN2C(=O)[C@@H](NC(=O)COCCCOCCCOc2ccc3nc(-c4ccc(N(C)C)cc4)ccc3c2)C(C)(C)C)cc1` [Compound 35, (2S,4R)-1-((S)-2-(2-(3-(3-(2-(4-(dimethylamino)phenyl)quinolin-6-yloxy)propoxy)propoxy)acetamido)-3,3-dimethylbutanoyl)-4-hydroxy-N-(4-(4-methylthiazol-5-yl)benzyl)pyrrolidine-2-carboxamide] belongs “C (>80% tau protein remaining after 72 hours of incubation with the test compound)”; to `Cc1ncoc1-c1ccc(CNC(=O)[C@@H]2C[C@@H](O)CN2C(=O)[C@@H](NC(=O)COCCOCCOCCOCCN2CCN(c3ccn4c(n3)nc3ccccc34)CC2)C(C)(C)C)cc1` [Compound 12, (2S,4R)-1-((S)-17-(4-(benzo[4,5]imidazo[1,2-a]pyrimidin-2-yl)piperazin-1-yl)-2-(tert-butyl)-4-oxo-6,9,12,15-tetraoxa-3-azaheptadecanoyl)-4-hydroxy-N-(4-(4-methyloxazol-5-yl)benzyl)pyrrolidine-2-carboxamide], “C (>80% tau protein remaining after 72 hours of incubation with the test compound)”.

The record behind these values is patent US11458123B2 (Arvinas, Inc., priority 2016, dated 2022).
